Data published in article PMC5571359, “Screening the Medicines for Malaria Venture Pathogen Box across Multiple Pathogens Reclassifies Starting Points for Open-Source Drug Discovery” (Antimicrobial Agents and Chemotherapy, 2017).
pIC50: −log10 of the molar value. Read-outs that look alike come from different tables or passages of the source. Each block holds one molecule with its values, some of them ahead of it.

Assays:
HepG2 = details: cited from earlier work; for CC50: read-out: HepG2 PBox CC50; for CC50 / HepG2 PBox CC20: HepG2, ref PBox supporting information; for HepG2 PBox CC20 μMc: ref Pbox supporting information
HEK293 cells = assay: HEK293 resazurin cell cytotoxicity assay; details: Homo sapiens
[1] = system: T. b. brucei 427 bloodstream trypanosomes; assay: T. b. brucei resazurin viability assay; type: cell-based, Trypanosoma brucei brucei; details: Trypanosoma brucei; read-out: T b.brucei Discovery Biology IC50
[2] = system: T. cruzi intracellular amastigotes; assay: Intracellular anti-Trypanosoma cruzi image-based assay (amastigotes); type: cell-based; details: for pIC50 / Emax: Trypanosoma cruzi; for pIC50: intracellular amastigotes; for Emax: PBox kinetoplastid set compounds active against T. cruzi alone, read-out: Emax against T. cruzi (subefficacious effect)
[3] = system: NF54-pfs16-LUC-GFP stage IV gametocytes; assay: Plasmodium falciparum late stage gametocyte (LSG) image-based assay; type: cell-based; details: Plasmodium falciparum; for IC50: NF54, read-out: Pf Stage IV GAMS Discovery Biology IC50 µM, stage IV gametocytes
[4] = system: Plasmodium falciparum 3D7 asexual blood stage; assay: microbe, parasite or virus in culture; details: for IC50: 3D7, read-out: Pf 3D7 Discovery Biology IC50 µM, P. falciparum 3D7 asexual blood stage
[5] = system: L. donovani MHOM/IN/80/DD8 intracellular amastigotes; assay: Leishmania donovani intracellular amastigote assay in THP-1 cells; type: cell-based; details: Leishmania donovani, THP-1; intracellular amastigotes; values marked *; read-out: L, donovani Discovery Biology IC50 µM
[6] = system: T. cruzi C4 β-galactosidase reporter parasite in MRC 5SV2 host cells; details: ref Pbox supporting information; read-out: T. cruzi Pbox IC50; cited from earlier work
[7] = HEK293, read-out: HEK % Inhibition 20uM/IC50 Discovery Biology
[8] = PBox compounds, 48 h exposure, read-out: IC50 T. cruzi (Discovery Biology)
[9] = HEK293, read-out: HEK % Inhibition 20uM/IC50 Discovery Biology (IA)
[10] = read-out: T cruzi Discovery Biology IC50

Compound: COC(=O)c1ccc(F)cc1NS(=O)(=O)c1cccc(-c2cnn(Cc3ccccc3)c2)c1 [MMV688350]
CC50 (HepG2): 10 µM

Compound: O=C1[C@@H](Oc2ccccc2)[C@@H](c2ccc(Cl)cc2)N1CCn1cnc2c(NCc3ccccc3)ncnc21 [MMV688352]
CC50 (HepG2): 3 µM

Compound: CC(C)(C)OC(=O)N1CCN(c2nccc(-c3ccc(-c4ccc(Cl)cc4)s3)n2)CC1 [MMV688416]
CC50 (HepG2): > 50 µM

pIC50 [2, 8]: 5.84
Compound: CC(C)n1nc(-c2cc3c(Cl)cccc3[nH]2)c2c(N)ncnc21 [MMV688417]
inhibition at 20 µM (HEK293 cells; [7]): 83% | pIC50 [1]: 5.21 | activity against T. cruzi in the Discovery Biology assay [2]: subefficacious activity

Compound: Cn1ccnc1CNCCS(=O)(=O)c1cccc(Nc2ccc(-c3cccc(F)c3)cn2)c1 [MMV688466]
CC50 (HepG2): 46.1 µM

Compound: CC(=O)NCC1CN(c2ccc(-c3ccc(CO)cc3)c(F)c2)C(=O)O1 (stereo not shown) [MMV688508]
CC50 (HepG2): > 100 µM

Compound: CC(C)(C)C(=O)N(CCCCCCN1C[C@H](O)[C@@H](O)[C@H](O)[C@H]1CO)C1CCCCCC1 [MMV688543]
CC50 (HepG2): > 50 µM

Compound: Cc1nn(C(=O)Nc2cccc(C(F)(F)F)c2)c(C)c1Sc1ncccn1 [MMV688552]
HepG2 PBox CC20 μMc (HepG2): 30.7 µM

Compound: O=C(NCc1ccoc1)N1CCN(Cc2ccc3c(c2)OCO3)CC1 [MMV688553]
CC50 (HepG2): > 100 µM

Compound: CNc1snc(C)c1C(=O)NCCOc1ccc(OC)cc1 [MMV688554]
CC50 (HepG2): > 100 µM

Compound: O=C(NCc1ccco1)N1CCN(Cc2ccc(Cl)s2)CC1 [MMV688555]
CC50 (HepG2): > 100 µM

Compound: NCC(c1cccs1)S(=O)(=O)c1ccccc1 (stereo not shown) [MMV688557]
CC50 (HepG2): 35.4 µM

Compound: CS(=O)(=O)c1ccc(C(=O)N(CC2CCCO2)c2nc3ccccc3s2)cc1[N+](=O)[O-] (stereo not shown) [MMV688761]
inhibition at 20 µM (HEK293 cells; [7]): 42% | IC50 [3]: 0.9 µM | IC50 [4]: 4.08 µM | pIC50 [1]: 5.46 | HepG2 PBox CC20 μMc (HepG2): 6.9 µM

Compound: c1ccc(-c2[nH]c3ccccc3c2C(c2ccccn2)N2CCCC2)cc1 (stereo not shown) [MMV688762]
pIC50 (HEK293 cells; [9]): < 4.70 | IC50 [3]: 3.16 µM | HepG2 PBox CC20 μMc (HepG2): 1 µM

Compound: CNc1nnc(Sc2cnn(-c3ccccc3)c(=O)c2Cl)s1 [MMV688763]
IC50 (HEK293 cells; HEK293, read-out: HEK % Discovery Biology IC50 uM): 6.32 µM | IC50 [3]: 5.33 µM | IC50 [5]: 2.11 µM | IC50 [4]: 3.36 µM | HepG2 PBox CC20 μMc (HepG2): 1.6 µM

Compound: COc1ccc(-c2onc(C(F)(F)F)c2-c2ccc(Cl)cc2)c(O)c1 [MMV688766]
pIC50 (HEK293 cells; [9]): < 4.70 | pIC50 ([3]; NF54, read-out: Antiplasmodial IC50 (GAM / LSG), PBox compounds, stage IV gametocytes, single determination): 5.88 | pIC50 ([4]; 3D7, read-out: Antiplasmodial IC50 (ABS), PBox compounds, P. falciparum 3D7): 6.07

Compound: Cc1ccccc1C(=O)N1N=C(Nc2ccccc2)SC1(C)C [MMV688771]
HepG2 PBox CC20 μMc (HepG2): 8 µM

Compound: OC[C@H]1O[C@@H](n2c3ccc(Cl)cc3c3c(-c4cc5ccccc5o4)ncnc32)C(O)[C@H]1O (stereo partly shown) [MMV688921]
CC50 (HepG2): 10 µM

Compound: FC(F)(F)c1ccc(N(c2cccnc2)C2CCN(c3ccc(C(F)(F)F)cn3)CC2)cc1 [MMV689243]
pIC50 (HEK293 cells; [7]): < 4.70 | pIC50 [6]: 7.82 | HepG2 PBox CC20 (HepG2): 25.8 µM | Emax [2]: < 100% | pIC50 [2, 10]: 6.15

Compound: O=C([C@@H](c1ccc(Cl)cc1)c1cccnc1)N1CCN(c2ccc(C(F)(F)F)cc2)CC1 [MMV689244]
pIC50 (HEK293 cells; [7]): < 4.70 | pIC50 [6]: 8.12 | HepG2 PBox CC20 (HepG2): 19.0 µM | Emax [2]: < 100% | pIC50 [2, 10]: 6.92

Compound: Nc1ncnc2c1ncn2C[C@@H](O)[C@@H](O)C(=O)O [MMV689255]
HepG2 PBox CC20 (HepG2): >80 µM

Compound: CNc1cc(C)nc(C2CN(C(=O)c3n[nH]c4ccccc34)CCO2)c1 (stereo not shown) [MMV689709]
pIC50 (HEK293 cells; [7]): < 4.70 | pIC50 [6]: 5.41 | pIC50 [2, 8]: 5.48

Compound: COc1cccn2c(C(=O)N3CCCCC3)c(C(F)(F)F)nc12 [MMV1110498]
HepG2 PBox CC20 μMc (HepG2): >80 µM

Compound: Cc1cc(OCC(=O)Nc2ccc(C(C)C)cc2)n(C)c(=O)c1C#N [MMV1198433]
HepG2 PBox CC20 μMc (HepG2): >80 µM
